Test results taken from PMC12040169 (PLOS Biology, 2025).

Experiment: in vitro
Conditions: human, hela cells, % viability

Row | Compound | viability at 28.5 h, 10 µM
1 | COc1ccc(CC(=O)NCc2nc(-c3ccc(OC)cc3)no2)cc1 [CBK270043] | 92%
2 | OCCN1CCN(c2nnc(-c3ccccc3)cc2-c2ccccc2)CC1 [CBK270045] | 86.2%
3 | O=C(c1cccnc1)N1CCN(C2CC(=O)N(c3ccc(F)cc3)C2=O)CC1 (stereo not shown) [CBK270049] | 91.5%
4 | Ic1cnn(Cc2nc(-c3ccc4c(c3)OCO4)no2)c1 [CBK270050] | 106%
5 | O=C(Nc1ccc(C(=O)O)c(O)c1)c1ccc(Br)o1 [CBK270053] | 87%
6 | CN1CCN(C(=O)c2ccccc2NC(=O)c2ccc(C(C)(C)C)cc2)CC1 [CBK270054] | 93.4%
7 | O=C(CCn1cnc2ccccc2c1=O)Nc1ccccc1C(F)(F)F [CBK270056] | 101%
8 | Nc1nnc(SCc2nc(=O)c3ccccc3[nH]2)s1 [CBK270059] | 92.2%
9 | c1ccc(-c2nnc(-c3ccncc3)nc2-c2ccccc2)cc1 [CBK270061] | 81.1%
10 | O=C(O)COc1ccc(NC(=O)C2CCCO2)cc1 (stereo not shown) [CBK270063] | 102%
11 | CCc1ccc(Nc2nc(N)nc(CN3CCN(c4ccccn4)CC3)n2)cc1 [CBK270064] | 102%
12 | CCOC(=O)CC1C(=O)NCCN1Cc1ccoc1 (stereo not shown) [CBK270066] | 92.4%
13 | Cc1nn(-c2ccc(N3CCNCC3)nn2)c(=O)c2ccccc12 [CBK270067] | 88.1%
14 | O=C(O)c1cccc(NS(=O)(=O)c2cccs2)c1 [CBK270068] | 59.5%
15 | O=C(CSc1nnc(-c2ccncc2)s1)Nc1ccc(Cl)cc1 [CBK270069] | 87.9%
16 | O=C(O)COc1cccc(NC(=O)c2cc3ccccc3o2)c1 [CBK270071] | 90.3%
17 | CCOc1ccc(S(=O)(=O)N2CCC(C(=O)N3CCN(C)CC3)CC2)cc1 [CBK270075] | 88.8%
18 | Cc1ccc(C(=O)Nc2ccccc2)cc1S(=O)(=O)N1CCN(C)CC1 [CBK270076] | 90.2%
19 | O=C(Cn1c(=O)oc2ccccc21)Nc1ccc(N2CCOCC2)c(Cl)c1 [CBK270079] | 102%

Row | Compound | viability at 28.5 h, 10 µM
20 | Cn1nnnc1SCCNCc1ccc2c(c1)n(C)c(=O)n2C [CBK270080C] | 99.8%
21 | COc1cc(-c2nc(C(C)=O)c(C)n2O)cc(OC)c1OC [CBK270083] | 95.6%
22 | Cc1cccc(C)c1N1CCN(CC(O)COc2ccc3c(C)cc(=O)oc3c2)CC1 (stereo not shown) [CBK270084] | 91.2%
23 | Cn1c(=O)[nH]c(=O)c2c1nc(CN1CCOCC1)n2Cc1c(F)cccc1Cl [CBK270085] | 90.5%
24 | COc1ccccc1N1CCN(CC(=O)Nc2cc(Cl)ccc2C)CC1 [CBK270087] | 105%
25 | N#Cc1ccccc1NC(=O)CN1CCCCCC1 [CBK270088] | 87.8%
26 | O=C(CSc1nnnn1-c1cccnc1)NC1CCCCCC1 [CBK270092] | 83.9%
27 | COc1cc(Br)c(-c2nnn[nH]2)cc1OC [CBK270093] | 108%
28 | Cn1c(=O)n(C)c2cc(NC(=O)CN(c3ccccc3)S(C)(=O)=O)ccc21 [CBK270094] | 103%
29 | Cc1nonc1NC(=O)CSc1nc2cc(Cl)ccc2[nH]1 [CBK270095] | 84.8%
30 | Cc1cccc(C)c1OCC(=O)Nc1ccccc1C(=O)N1CCOCC1 [CBK270096] | 91.2%
31 | CCc1cc(S(=O)(=O)NC2CC(C)(C)NC(C)(C)C2)ccc1OC [CBK270097] | 92%
32 | CCc1ccc(OC)c(S(=O)(=O)NC2CC(C)(C)NC(C)(C)C2)c1 [CBK270098] | 101%
33 | Nc1ccc(OCc2nc3ccccc3n2CC(=O)O)cc1 [CBK270099] | 96%
34 | O=C(O)CCCn1cc(NC(=O)c2ccccc2Br)cn1 [CBK270100] | 82.9%
35 | CCn1c(SCC(=O)Nc2ccc(C#N)cc2)nnc1-c1ccncc1 [CBK270102] | 96.4%
36 | Cc1ccc(Cl)cc1NC(=O)CCn1cnc2ccccc2c1=O [CBK270103] | 95.1%
37 | Cn1ncc(N)c1C(=O)Nc1cccc(Cl)c1 [CBK270107] | 87.6%
